Reference: ChEMBL document CHEMBL4477276, “Synthesis and aromatase inhibitory evaluation of 4-N-nitrophenyl substituted amino-4H-1,2,4-triazole derivatives” (Bioorg Med Chem, 2016)

target: T1, Aromatase (Homo sapiens, UniProt P11511); experiment: Inhibition of recombinant human aromatase using 7-methoxy-trifluoromethylcoumarin as substrate incubated for 30 mins by fluorescence microplate reader analysis
T1 sequence (P11511 whole entry): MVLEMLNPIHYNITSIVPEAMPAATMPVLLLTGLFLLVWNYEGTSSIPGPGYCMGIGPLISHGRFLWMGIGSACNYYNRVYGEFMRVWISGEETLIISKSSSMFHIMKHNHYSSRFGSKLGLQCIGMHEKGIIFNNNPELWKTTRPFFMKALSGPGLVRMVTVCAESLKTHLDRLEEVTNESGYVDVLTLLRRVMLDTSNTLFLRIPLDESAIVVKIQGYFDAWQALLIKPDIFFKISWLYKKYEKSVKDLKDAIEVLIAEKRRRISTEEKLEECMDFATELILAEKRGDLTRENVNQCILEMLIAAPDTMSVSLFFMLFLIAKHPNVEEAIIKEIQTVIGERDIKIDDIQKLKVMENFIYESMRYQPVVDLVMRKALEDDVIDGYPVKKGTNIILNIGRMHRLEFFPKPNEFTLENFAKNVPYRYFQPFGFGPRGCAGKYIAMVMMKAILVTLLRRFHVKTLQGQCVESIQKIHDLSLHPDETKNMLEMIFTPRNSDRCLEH

Structure (SMILES)	IC50
N#Cc1cccc(CN(c2ccc([N+](=O)[O-])c(Br)c2)n2cnnc2)c1	57.6 nM
O=[N+]([O-])c1ccc(N(Cc2cccc(C(F)(F)F)c2)n2cnnc2)cc1Br	17.4 nM
O=[N+]([O-])c1ccc(Nn2cnnc2)cc1Br	90.7 nM
O=[N+]([O-])c1ccc(N(Cc2ccc(Cl)cc2)n2cnnc2)cc1Br	9.02 nM
N#Cc1cccc(CN(c2ccc([N+](=O)[O-])c(-c3ccccc3)c2)n2cnnc2)c1	73.2 nM
O=[N+]([O-])c1cccc(CN(c2ccc([N+](=O)[O-])c(Br)c2)n2cnnc2)c1	12.1 nM
O=[N+]([O-])c1ccc(N(Cc2ccc(C(F)(F)F)cc2)n2cnnc2)cc1Br	43.6 nM
O=[N+]([O-])c1ccc(N(Cc2ccc(C(F)(F)F)cc2)n2cnnc2)cc1-c1ccccc1	14.5 nM
O=[N+]([O-])c1ccc(N(Cc2ccccc2)n2cnnc2)cc1-c1ccccc1	30.2 nM
O=[N+]([O-])c1ccc(N(Cc2cccc(C(F)(F)F)c2)n2cnnc2)cc1-c1ccccc1	17.4 nM
N#Cc1ccccc1CN(c1ccc([N+](=O)[O-])c(Br)c1)n1cnnc1	58.8 nM
O=[N+]([O-])c1ccc(N(Cc2ccccc2)n2cnnc2)cc1Br	39.8 nM
O=[N+]([O-])c1cccc(CN(c2ccc([N+](=O)[O-])c(-c3ccccc3)c2)n2cnnc2)c1	19.7 nM
